This note sets out measurements from patent US20240116909A1, “NOVEL COMPOUNDS USEFUL AS STING AGONISTS AND USES THEREOF” (priority 2021, published 2024).

Where only a bound is given, the exact number is not on record here.

The target of the test is human STING WT (Homo sapiens (Human), UniProt Q86WV6). In words: Human STING WT binding assay (Cisbio HTRF). To be noted: human STING WT protein 6His-tagged, 3 hours at RT, read-out: hSTING WT binding IC50. How it is done: Cisbio Bioassays' human STING WT binding assay (#64BDSTGPEG & 64BDSTGPEH, Cisbio) is for quantitative measurement of human STING WT ligand using HTRF® technology.
Sequence of human STING WT (Q86WV6 whole entry): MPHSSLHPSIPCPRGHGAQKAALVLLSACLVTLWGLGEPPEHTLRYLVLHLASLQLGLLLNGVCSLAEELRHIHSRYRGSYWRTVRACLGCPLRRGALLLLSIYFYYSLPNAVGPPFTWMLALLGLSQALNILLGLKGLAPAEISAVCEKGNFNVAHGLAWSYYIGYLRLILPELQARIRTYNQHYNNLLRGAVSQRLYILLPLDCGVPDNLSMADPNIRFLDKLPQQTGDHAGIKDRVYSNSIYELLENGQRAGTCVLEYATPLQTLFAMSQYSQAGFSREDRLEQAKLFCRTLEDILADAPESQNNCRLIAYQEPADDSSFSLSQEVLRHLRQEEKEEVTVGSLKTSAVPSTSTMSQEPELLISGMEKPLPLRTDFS
Negative control: Dispense 5 μL of diluent into each negative control well. Standard: Dispense 5 μL of each Human STING WT Standard 2′3′-cGAMP (Std 0-Std 7) into each standard well. Compound: Dispense 5 μL of compound into each compound well.
Negative control: Add 5 μL of detection buffer to all wells. Other wells: Add 5 μL of human STING WT protein 6His-tagged protein to all wells.
Add 10 μL of premixed STING WT ligand d2 reagent and 6His Tb antibody working solution to all wells.
Seal the plate and incubate 3 hours at RT or at Over Night if necessary.
Remove the plate sealer and read on an HTRF® compatible reader (PerkinElmer, USA). Results were analyzed with a two-wavelength signal ratio: intensity (665 nm)/intensity (620 nm).
Fit the data in GraphPad to obtain IC50 values using equation (2)
Y=Bottom+(Top−Bottom)/(1+10^((Log IC50−X)*Hill Slope)) Equation (2): […]
Y is HTRF Ratio and X is compound concentration.
For the compound `C=C(COc1c(OC)cc2c(c1Cl)CN(C(=O)CCC(=O)O)C2)COc1c(OC)cc2sc(C(=O)CCC(=O)O)cc2c1F` [Example 16, 4-(5-((2-(((2-(3-carboxypropanoyl)-4-chloro-6-methoxyisoindolin-5-yl)oxy)methyl)allyl)oxy)-4-fluoro-6-methoxybenzo[b]thiophen-2-yl)-4-oxobutanoic Acid], the IC50 is greater than 150 nM.

As to `COc1cc2sc(C(=O)CCC(=O)O)cc2cc1OCCCOc1c(OC)cc2c(c1F)CN(C(=O)CCC(=O)O)C2` [Example 10, 4-(5-(3-((2-(3-carboxypropanoyl)-4-fluoro-6-methoxyisoindolin-5-yl)oxy)propoxy)-6-methoxybenzo[b]thiophen-2-yl)-4-oxobutanoic Acid], the IC50 amounted to 0.28 nM. In the case of `COc1cc2sc(C(=O)CCC(=O)O)cc2cc1OCCCOc1c(OC)cc2c(c1Cl)CN(C(=O)CCC(=O)O)C2` [Example 14, 4-(5-(3-((2-(3-carboxypropanoyl)-4-chloro-6-methoxyisoindolin-5-yl)oxy)propoxy)-6-methoxybenzo[b]thiophen-2-yl)-4-oxobutanoic Acid] it was 46.6 nM. In the case of `COc1cc2c(c(F)c1OCCCOc1c(OC)cc3sc(C(=O)CCC(=O)O)cc3c1F)CN(C(=O)CCC(=O)O)C2` [Example 4, 4-(5-(3-((2-(3-carboxypropanoyl)-4-fluoro-6-methoxybenzo[b]thiophen-5-yl)oxy)propoxy)-4-fluoro-6-methoxyisoindolin-2-yl)-4-oxobutanoic Acid] it was 0.18 nM; in that of `COc1cc2c(cc1OCCCOc1cc3cc(C(=O)NCCC(=O)O)sc3cc1OC)CN(C(=O)CCC(=O)O)C2` [Example 18, 4-(5-(3-((2-((2-carboxyethyl)carbamoyl)-6-methoxybenzo[b]thiophen-5-yl)oxy)propoxy)-6-methoxyisoindolin-2-yl)-4-oxobutanoic Acid], 4.59 nM. Then `COc1cc2c(cc1OCCCOc1c(OC)cc3sc(C(=O)C[C@H](C)C(=O)O)cc3c1F)CN(C(=O)C[C@H](C)C(=O)O)C2` [Example 6, Sodium (S)-4-(5-(3-((2-((S)-3-carboxylatobutanoyl)-4-fluoro-6-methoxybenzo[b]thiophen-5-yl)oxy)propoxy)-6-methoxyisoindolin-2-yl)-2-methyl-4-oxobutanoate], with 0.36 nM. On to `C=C(COc1cc2c(cc1OC)CN(C(=O)CCC(=O)O)C2)COc1cc2cc(C(=O)CCC(=O)O)sc2cc1OC` [Example 19, 4-(5-((2-(((2-(3-carboxypropanoyl)-6-methoxybenzo[b]thiophen-5-yl)oxy)methyl)allyl)oxy)-6-methoxyisoindolin-2-yl)-4-oxobutanoic Acid], for which the IC50 is 54.6 nM. In the case of `COc1cc2c(cc1OCCCOc1nc3cc(C(=O)CCC(=O)O)sc3cc1OC)CN(C(=O)CCC(=O)O)C2` [Example 8, Sodium 4-(5-(3-((2-(3-carboxylatopropanoyl)-6-methoxyisoindolin-5-yl)oxy)propoxy)-6-methoxythieno[3,2-b]pyridin-2-yl)-4-oxobutanoate] it was 0.65 nM; in that of `COc1cc2c(cc1OCCCOc1cc3cc(C(=O)CCC(=O)O)sc3cc1Br)CN(C(=O)CCC(=O)O)C2` [Example 9, 4-(5-(3-((6-bromo-2-(3-carboxypropanoyl)benzo[b]thiophen-5-yl)oxy)propoxy)-6-methoxyisoindolin-2-yl)-4-oxobutanoic Acid], 2.23 nM. In the case of `COc1cc2c(cc1OCCCOc1cc3cc(C(=O)C[C@H](C)C(=O)O)sc3cc1OC)CN(C(=O)C[C@H](C)C(=O)O)C2` [Example 5, Sodium (S)-4-(5-(3-((2-((S)-3-carboxylatobutanoyl)-6-methoxybenzo[b]thiophen-5-yl)oxy)propoxy)-6-methoxyisoindolin-2-yl)-2-methyl-4-oxobutanoate] it was 0.32 nM. Then `COc1cc2c(cc1OCCCOc1cc3cc(C(=O)CCC(=O)O)sc3cc1OC)CN(C(=O)CCC(=O)O)C2` [Example 1, 4-(5-(3-((2-(3-carboxypropanoyl)-6-methoxybenzo[b]thiophen-5-yl)oxy)propoxy)-6-methoxyisoindolin-2-yl)-4-oxobutanoic Acid], with 0.06 nM; and `COc1cc2c(cc1OCCCOc1c(OC)cc3sc(C(=O)CCC(=O)O)cc3c1F)CN(C(=O)CCC(=O)O)C2` [Example 20, 4-(5-(3-((2-(3-carboxypropanoyl)-4-fluoro-6-methoxybenzo[b]thiophen-5-yl)oxy)propoxy)-6-methoxyisoindolin-2-yl)-4-oxobutanoic Acid], with 0.19 nM; and `COc1cc2c(c(Cl)c1OCCCOc1c(OC)cc3sc(C(=O)CCC(=O)O)cc3c1F)CN(C(=O)CCC(=O)O)C2` [Example 2, 4-(5-(3-((2-(3-carboxypropanoyl)-4-chloro-6-methoxyisoindolin-5-yl)oxy)propoxy)-4-fluoro-6-methoxybenzo[b]thiophen-2-yl)-4-oxobutanoic Acid], with 11.4 nM. `COc1cc2c(c(F)c1OCCCOc1c(OC)cc3sc(C(=O)C[C@H](C)C(=O)O)cc3c1F)CN(C(=O)C[C@H](C)C(=O)O)C2` [Example 17, (S)-4-(5-(3-((2-((S)-3-carboxybutanoyl)-4-fluoro-6-methoxybenzo[b]thiophen-5-yl)oxy)propoxy)-4-fluoro-6-methoxyisoindolin-2-yl)-2-methyl-4-oxobutanoic Acid]: the half-inhibitory concentration (IC50) is 0.19 nM.

With `COc1cc2sc(C(=O)[C@H]3C[C@@H]3C(=O)O)cc2cc1OCCCOc1c(OC)cc2c(c1F)CN(C(=O)CCC(=O)O)C2` (relative stereo) [Example 21, trans-2-(5-(3-((2-(3-carboxypropanoyl)-4-fluoro-6-methoxyisoindolin-5-yl)oxy)propoxy)-6-methoxybenzo[b]thiophene-2-carbonyl)cyclopropane-1-carboxylic Acid], the IC50 stood at 159 nM. In the case of `COc1cc2c(cc1OCCCOc1cc3sc(C(=O)CCC(=O)O)cc3nc1OC)CN(C(=O)CCC(=O)O)C2` [Example 15, 4-(5-(3-((2-(3-carboxypropanoyl)-5-methoxythieno[3,2-b]pyridin-6-yl)oxy)propoxy)-6-methoxyisoindolin-2-yl)-4-oxobutanoic Acid] it was 92.6 nM; in that of `COc1cc2c(c(F)c1OCCCOc1c(OC)cc3sc(C(=O)CCC(=O)O)cc3c1Cl)CN(C(=O)CCC(=O)O)C2` [Example 3, 4-(5-(3-((2-(3-carboxypropanoyl)-4-chloro-6-methoxybenzo[b]thiophen-5-yl)oxy)propoxy)-4-fluoro-6-methoxyisoindolin-2-yl)-4-oxobutanoic Acid], 8.4 nM. Then `COc1cc2c(nc1OCCCOc1nc3cc(C(=O)CCC(=O)O)sc3cc1OC)CN(C(=O)CCC(=O)O)C2` [Example 11, 4-(5-(3-((6-(3-carboxypropanoyl)-3-methoxy-6,7-dihydro-5H-pyrrolo[3,4-b]pyridin-2-yl)oxy)propoxy)-6-methoxythieno[3,2-b]pyridin-2-yl)-4-oxobutanoic Acid], with 2.54 nM.
